# In US5854388A, “Angiotensin IV peptides and receptor” (Washington State University Research Foundation, priority 1994, dated 1998):
# Where two headings read alike, the source gives them in different places.
# What was measured:
# AT4 receptor [1] = target: T1, AT4 receptor (Bos taurus, UniProt F1N1Q8); assay: 125I-AIV binding and competition, bovine adrenal cortical membranes
# T1 sequence (F1N1Q8 1-1022): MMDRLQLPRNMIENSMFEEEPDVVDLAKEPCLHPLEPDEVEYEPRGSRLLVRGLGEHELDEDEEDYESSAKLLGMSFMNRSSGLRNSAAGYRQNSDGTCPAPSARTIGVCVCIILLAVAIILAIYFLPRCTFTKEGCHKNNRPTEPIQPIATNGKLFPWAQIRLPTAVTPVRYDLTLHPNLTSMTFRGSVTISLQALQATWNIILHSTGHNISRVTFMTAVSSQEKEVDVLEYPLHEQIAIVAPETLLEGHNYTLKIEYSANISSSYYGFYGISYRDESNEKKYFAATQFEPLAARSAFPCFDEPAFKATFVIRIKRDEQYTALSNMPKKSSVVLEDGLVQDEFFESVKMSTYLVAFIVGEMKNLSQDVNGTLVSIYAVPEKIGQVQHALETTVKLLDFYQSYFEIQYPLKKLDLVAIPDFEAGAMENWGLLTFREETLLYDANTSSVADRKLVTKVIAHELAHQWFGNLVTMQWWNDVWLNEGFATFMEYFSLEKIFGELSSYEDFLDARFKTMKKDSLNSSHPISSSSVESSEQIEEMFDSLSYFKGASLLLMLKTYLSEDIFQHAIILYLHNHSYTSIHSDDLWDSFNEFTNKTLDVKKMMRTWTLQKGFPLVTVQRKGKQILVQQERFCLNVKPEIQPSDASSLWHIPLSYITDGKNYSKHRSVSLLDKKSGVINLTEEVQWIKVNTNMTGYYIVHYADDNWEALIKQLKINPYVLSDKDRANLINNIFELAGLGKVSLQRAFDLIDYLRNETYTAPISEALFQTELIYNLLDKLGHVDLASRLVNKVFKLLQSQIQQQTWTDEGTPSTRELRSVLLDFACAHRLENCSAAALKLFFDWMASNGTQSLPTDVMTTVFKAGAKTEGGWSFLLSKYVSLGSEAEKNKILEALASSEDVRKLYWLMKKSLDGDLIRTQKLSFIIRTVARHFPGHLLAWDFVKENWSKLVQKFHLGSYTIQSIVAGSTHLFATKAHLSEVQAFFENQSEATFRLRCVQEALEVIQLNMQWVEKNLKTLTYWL
# AT4 receptor [2] = target: T1, AT4 receptor; assay: 125I-AIV binding and competition, coronary venular endothelial cell (CVEC) membranes; parameters: species or system bovine; conditions: for Ki: read-out: Ki
# [3] = Stability of angiotensin peptides in binding buffer (reverse phase HPLC); type: physicochemical; conditions: 4 h at 37° C.
# Method: Binding studies were carried out in a buffer (below) containing an extensive cocktail of inhibitors that was designed to minimize metabolism of both the receptor and the test ligand, i.e., the buffer contained 5 mM EDTA, 0.2% BSA, […] Bestatin, 50 μM Plummer's inhibitor, and 100 μM PMSF.
# [4] = in vivo; cited from earlier work
# AT4 receptor [5] = target: T1, AT4 receptor; assay: 125I-AIV binding and competition, solubilized bovine adrenal cortical receptor
# [6] = arterial and venous blood in man; cited from earlier work
# AT4 receptor [7] = target: T2, AT4 receptor (Cavia porcellus, UniProt H0VNM7); assay: 125I-AIV binding and competition, guinea pig hippocampus membranes; conditions: competition of 0.6 nM 125I-AIV
# T2 sequence (H0VNM7 1-1025): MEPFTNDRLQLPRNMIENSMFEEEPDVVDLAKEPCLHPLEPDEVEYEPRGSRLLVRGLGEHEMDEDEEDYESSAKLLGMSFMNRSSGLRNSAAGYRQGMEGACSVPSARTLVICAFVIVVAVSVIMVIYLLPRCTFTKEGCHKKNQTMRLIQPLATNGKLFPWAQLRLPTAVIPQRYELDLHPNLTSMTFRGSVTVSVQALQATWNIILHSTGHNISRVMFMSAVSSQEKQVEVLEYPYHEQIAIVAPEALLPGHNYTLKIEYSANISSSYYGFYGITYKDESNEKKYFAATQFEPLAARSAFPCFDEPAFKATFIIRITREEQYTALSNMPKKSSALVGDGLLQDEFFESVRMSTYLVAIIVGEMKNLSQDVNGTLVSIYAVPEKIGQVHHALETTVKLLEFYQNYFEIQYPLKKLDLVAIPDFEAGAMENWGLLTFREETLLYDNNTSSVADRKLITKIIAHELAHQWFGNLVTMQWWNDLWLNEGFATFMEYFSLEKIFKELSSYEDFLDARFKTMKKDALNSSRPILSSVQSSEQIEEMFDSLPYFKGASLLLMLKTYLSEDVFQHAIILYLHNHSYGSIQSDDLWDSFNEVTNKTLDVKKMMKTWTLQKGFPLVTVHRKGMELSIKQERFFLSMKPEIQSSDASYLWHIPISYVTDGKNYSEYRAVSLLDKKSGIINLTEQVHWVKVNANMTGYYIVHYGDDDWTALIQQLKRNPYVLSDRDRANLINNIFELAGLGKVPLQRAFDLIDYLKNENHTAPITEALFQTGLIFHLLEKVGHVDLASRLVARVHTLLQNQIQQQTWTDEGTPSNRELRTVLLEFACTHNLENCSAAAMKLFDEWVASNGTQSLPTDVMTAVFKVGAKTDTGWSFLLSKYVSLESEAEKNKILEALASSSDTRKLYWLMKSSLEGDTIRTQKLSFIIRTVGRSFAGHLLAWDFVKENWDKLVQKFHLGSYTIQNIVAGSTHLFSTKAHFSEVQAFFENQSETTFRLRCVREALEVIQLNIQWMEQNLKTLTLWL
# [8] = target: T3, AT1 receptor (AII receptor) (Bos taurus, UniProt P25104); type: binding, bovine; conditions: for Bmax: equilibrium binding
# T3 construct: from tissue; host or cells: bovine adrenal cortex membranes
# T3 sequence (P25104 1-359): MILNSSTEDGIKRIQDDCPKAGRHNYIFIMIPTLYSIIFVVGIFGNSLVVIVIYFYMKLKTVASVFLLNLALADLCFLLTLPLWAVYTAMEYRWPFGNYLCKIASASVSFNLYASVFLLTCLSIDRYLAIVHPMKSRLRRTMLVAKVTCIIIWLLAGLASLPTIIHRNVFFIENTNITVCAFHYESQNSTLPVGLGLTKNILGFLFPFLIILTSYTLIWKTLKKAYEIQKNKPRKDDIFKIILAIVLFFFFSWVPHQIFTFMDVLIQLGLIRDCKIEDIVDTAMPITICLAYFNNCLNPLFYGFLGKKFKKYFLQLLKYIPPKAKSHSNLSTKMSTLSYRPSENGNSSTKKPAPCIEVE
# AT4 receptor [9] = target: T4, AT4 receptor (Oryctolagus cuniculus, UniProt G1SFU4); assay: 125I-AIV binding and competition, rabbit heart P2 membranes; conditions: competition of 0.5 nM 125I-AIV, 120 min, 37° C.
# T4 sequence (G1SFU4 1-1025): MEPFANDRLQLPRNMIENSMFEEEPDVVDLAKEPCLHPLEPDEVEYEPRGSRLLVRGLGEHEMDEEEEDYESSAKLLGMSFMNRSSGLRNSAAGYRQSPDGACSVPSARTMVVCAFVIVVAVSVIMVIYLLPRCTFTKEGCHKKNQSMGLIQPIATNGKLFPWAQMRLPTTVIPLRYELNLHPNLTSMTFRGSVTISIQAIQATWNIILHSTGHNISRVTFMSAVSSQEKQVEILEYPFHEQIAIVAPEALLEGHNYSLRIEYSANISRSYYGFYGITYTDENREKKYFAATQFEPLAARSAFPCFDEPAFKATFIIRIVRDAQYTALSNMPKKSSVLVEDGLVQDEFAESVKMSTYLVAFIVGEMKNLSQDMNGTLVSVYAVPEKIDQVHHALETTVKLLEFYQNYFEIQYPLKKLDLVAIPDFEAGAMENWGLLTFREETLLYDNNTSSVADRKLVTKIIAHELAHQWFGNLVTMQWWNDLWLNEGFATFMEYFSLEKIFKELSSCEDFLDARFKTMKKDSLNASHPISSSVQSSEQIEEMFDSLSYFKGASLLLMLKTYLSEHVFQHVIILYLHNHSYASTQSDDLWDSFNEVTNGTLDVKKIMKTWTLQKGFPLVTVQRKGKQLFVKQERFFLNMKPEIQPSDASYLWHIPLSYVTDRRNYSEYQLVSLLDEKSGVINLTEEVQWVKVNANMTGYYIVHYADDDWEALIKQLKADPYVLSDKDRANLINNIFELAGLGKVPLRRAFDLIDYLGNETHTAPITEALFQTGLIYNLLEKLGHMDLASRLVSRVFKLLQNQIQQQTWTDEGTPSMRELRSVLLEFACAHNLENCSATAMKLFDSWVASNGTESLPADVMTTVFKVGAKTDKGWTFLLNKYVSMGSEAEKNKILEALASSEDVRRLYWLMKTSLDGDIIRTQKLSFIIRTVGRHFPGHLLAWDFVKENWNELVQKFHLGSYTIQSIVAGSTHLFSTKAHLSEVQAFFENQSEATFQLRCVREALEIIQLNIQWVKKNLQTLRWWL
# rat kidney = assay: Renal cortical blood flow (laser doppler) and arterial pressure after infusion into the renal artery; type: in vivo
# [10] = read-out: 125I-AIV Binding (Ki), competition
compound,measurement,setting,value
"CC[C@H](C)[C@H](NC(=O)[C@H](Cc1ccc(O)cc1)NC(=O)[C@@H](NC(=O)[C@@H](N)CCCNC(=N)N)C(C)C)C(=O)N[C@@H](Cc1c[nH]cn1)C(=O)N1CCC[C@H]1C(=O)N[C@@H](Cc1ccccc1)C(=O)O [AIII, Arg1 Val2 Tyr3 Ile4 His5 Pro6 Phe7, reference compound]",fold less active than AIV ligand,AT4 receptor [1]; density-gradient-purified heat-treated membranes,about 52 fold
same,Ki,"AT4 receptor [1]; density-gradient-purified heat-treated membranes, read-out: apparent affinity (Ki)",29.3 nM
same,Ki,AT4 receptor [1]; [10],> 14.5 nM
same,Ki,AT4 receptor [2]; competition of 0.5 nM 125I-AIV,23.3 ± 3.4 nM
same,hydrolysis in binding buffer,[3],less than 10%
same,metabolized during transit through the kidney,[4],89%
same,fold less active than AIV ligand,AT4 receptor [5],approximately 29 fold
same,times less effective than AIV in competing binding,AT4 receptor [5],approximately 100 times
same,half-lives,[6],2.0 min
Asp1 Arg2 Val3 Tyr4 Ile5 His6 Pro7 Phe8His9 Leu10 (DRVYIHPFHL) [AI],hydrolysis in binding buffer,[3],less than 10%
same,metabolized during transit through the kidney,[4],72-76%
CGP 42112A,Ki,AT4 receptor [1]; [10],> 100000 nM
same,Ki,AT4 receptor [2]; unit inferred,> 100000 nM
same,Ki,AT4 receptor [7],> 100000 nM
same,Ki,[8]; competition,> 100000 nM
same,Ki,AT4 receptor [9],> 1000 nM
"SRVYIHPI [Sar1, Ile8 -AII]",Ki,AT4 receptor [1]; [10],> 1000 nM
same,increase in Ki (decrease in affinity) compared with AIV,AT4 receptor [2],200 fold
same,Ki,AT4 receptor [2]; competition of 0.5 nM 125I-AIV,261 ± 89.1 nM
same,Ki,AT4 receptor [7],> 1000 nM
same,Hill Coeff.,[8],1.00 ± .03
same,Bmax,"[8]; listed as 125I Sar1, Ile8 -Ang II",1.03 ± .26 pmol/mg prot.
same,Bmax,"[8]; listed as 125I-Sar1,Ile8 -AII",1.03±0.26 pmol/mg prot.
same,Kd,[8]; read-out: Kd (calculated from kinetic constants),0.225 nM
same,average change in AIV-induced blood flow with preinfusion,"rat kidney; 1 nmol/min, 10 min preinfusion",< 3%
same,effect of preinfusion on blood flow response to another ligand,"rat kidney; rat, in vivo",completely blocked the AII effect while having no effect on AIV
same,Ki,AT4 receptor [9],> 1000 nM
